Drawing on US9416115B2, “Fused heterocyclic compounds as ion channel modulators” (Gilead Sciences, Inc., priority 2013, dated 2016), this text covers inhibition for eight compounds.

Experiment [1] deals with wild-type human cardiac sodium channel, hNav1.5 (Homo sapiens, UniProt Q14524). As to the kind of experiment: Peak INa screening assay (tonic block and use-dependent block). It counts as cell-based. The method in brief:
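Whole-cell automated patch clamp, 23-25° C, on hNav1.5 alpha-only HEK293 cells with Na+ lowered to 40 mM by choline. Block measured after two additions of 1 or 3 μM compound and 200 s wait: tonic at 0.1 Hz, use-dependent at 50th pulse (−20 mV, 20 ms, 3 Hz) from −100 mV, relative to drug-free, rundown corrected.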

For another experiment, the target named is hNav1.1 (SCN1A) (Homo sapiens, UniProt P35498). Description: Use-dependent inhibition of the CNS Nav1.1 sodium channel. It counts as cell-based. The following applies: use-dependent block, 25 Hz, pulse 20, read-out: Nav1.1 UDB 25 Hz 10 uM. The gist of the method: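 HEK-293 cells stably expressing WT hNav1.1, automated whole-cell patch clamp at 23-25 °C with CsF-based internal and NaCl external solutions, pH 7.35. Compound applied twice, 200 s equilibration; block measured at pulse 20 of a 25 Hz train (0 mV, 20 ms) from −120 mV, as mean % inhibition versus compound-free.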

The mark [2] stands for this setting: tonic block of Peak INa, 0.1 Hz, holding -100 mV, read-out: Peak TB 3 uM.
The mark [3] stands for this setting: use-dependent block of Peak INa, 3 Hz, pulse 50, read-out: Peak UDB 3 Hz 3 uM.

Read-outs that look alike come from different tables or passages of the source. A value given as a limit tells only on which side of the number the result lay.

Sequence of wild-type human cardiac sodium channel, hNav1.5 (Q14524 whole entry): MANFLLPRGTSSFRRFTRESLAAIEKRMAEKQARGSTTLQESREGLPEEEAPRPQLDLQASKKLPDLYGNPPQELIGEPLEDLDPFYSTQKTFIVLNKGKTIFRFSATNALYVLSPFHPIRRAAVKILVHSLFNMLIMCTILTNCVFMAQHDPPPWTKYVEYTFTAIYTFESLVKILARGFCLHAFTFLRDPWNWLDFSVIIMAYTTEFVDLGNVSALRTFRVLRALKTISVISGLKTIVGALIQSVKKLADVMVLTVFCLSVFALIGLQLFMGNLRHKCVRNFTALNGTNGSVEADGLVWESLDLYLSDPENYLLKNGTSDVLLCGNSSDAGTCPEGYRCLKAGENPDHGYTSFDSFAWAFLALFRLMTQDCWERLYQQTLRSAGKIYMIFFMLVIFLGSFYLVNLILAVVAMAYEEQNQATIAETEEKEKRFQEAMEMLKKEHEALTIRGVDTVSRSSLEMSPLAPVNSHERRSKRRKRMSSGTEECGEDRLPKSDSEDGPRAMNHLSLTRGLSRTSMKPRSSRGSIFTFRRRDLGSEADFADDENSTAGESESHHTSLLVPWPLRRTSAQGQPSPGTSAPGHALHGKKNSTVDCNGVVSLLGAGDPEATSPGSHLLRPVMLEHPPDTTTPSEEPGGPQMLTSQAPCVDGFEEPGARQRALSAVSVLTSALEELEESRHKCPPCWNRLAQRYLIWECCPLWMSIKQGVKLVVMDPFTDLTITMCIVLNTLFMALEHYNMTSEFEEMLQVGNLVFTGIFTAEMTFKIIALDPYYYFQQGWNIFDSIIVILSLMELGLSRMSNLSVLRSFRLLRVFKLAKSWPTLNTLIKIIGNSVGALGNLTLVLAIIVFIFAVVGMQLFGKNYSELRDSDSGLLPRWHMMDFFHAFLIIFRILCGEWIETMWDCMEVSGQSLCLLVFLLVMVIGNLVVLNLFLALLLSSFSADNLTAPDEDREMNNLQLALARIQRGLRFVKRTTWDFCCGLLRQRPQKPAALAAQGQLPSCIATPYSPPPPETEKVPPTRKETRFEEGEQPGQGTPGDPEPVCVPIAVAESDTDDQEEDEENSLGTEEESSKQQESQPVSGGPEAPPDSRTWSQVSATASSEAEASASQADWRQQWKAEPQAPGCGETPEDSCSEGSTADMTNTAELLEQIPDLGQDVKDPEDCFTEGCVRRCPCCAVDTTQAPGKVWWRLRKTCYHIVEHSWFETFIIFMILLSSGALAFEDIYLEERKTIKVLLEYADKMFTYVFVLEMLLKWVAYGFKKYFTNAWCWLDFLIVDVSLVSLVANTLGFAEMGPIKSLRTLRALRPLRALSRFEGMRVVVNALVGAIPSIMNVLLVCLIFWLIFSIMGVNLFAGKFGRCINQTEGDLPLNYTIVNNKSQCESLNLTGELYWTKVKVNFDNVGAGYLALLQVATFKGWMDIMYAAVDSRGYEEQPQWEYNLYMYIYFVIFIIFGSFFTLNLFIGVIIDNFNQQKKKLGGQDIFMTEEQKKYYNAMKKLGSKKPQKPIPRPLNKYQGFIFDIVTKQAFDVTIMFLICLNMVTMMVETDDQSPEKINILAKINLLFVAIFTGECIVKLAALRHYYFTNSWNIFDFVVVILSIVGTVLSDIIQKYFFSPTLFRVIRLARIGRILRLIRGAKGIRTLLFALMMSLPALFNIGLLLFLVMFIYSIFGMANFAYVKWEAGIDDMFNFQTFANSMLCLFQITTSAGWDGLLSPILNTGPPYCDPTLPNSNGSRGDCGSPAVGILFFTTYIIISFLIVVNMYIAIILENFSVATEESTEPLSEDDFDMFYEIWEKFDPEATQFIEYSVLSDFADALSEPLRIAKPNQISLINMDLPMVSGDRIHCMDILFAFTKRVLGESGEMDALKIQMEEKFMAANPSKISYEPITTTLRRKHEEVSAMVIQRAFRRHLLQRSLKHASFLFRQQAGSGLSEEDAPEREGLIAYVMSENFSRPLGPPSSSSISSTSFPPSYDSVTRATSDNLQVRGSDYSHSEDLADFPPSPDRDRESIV

With `COc1ccnc(COc2noc3ccc(-c4ccc(OC(F)(F)F)cc4)cc23)c1` [Example 81, 3-((4-methoxypyridin-2-yl)methoxy)-5-(4-(trifluoromethoxy)phenyl)benzo[d]isoxazole], the inhibition at 3 µM in experiment [1] (setting [2]) was 23.5%; in experiment [1] (setting [3]), less than 5%. At hNav1.1 (SCN1A), the inhibition at 10 µM is less than 5%.

On to `Cc1cc(-c2ccc(OC(F)(F)F)cc2)cc2c(OCCn3cncn3)noc12` [Example 89, 3-(2-(1H-1,2,4-triazol-1-yl)ethoxy)-7-methyl-5-(4-(trifluoromethoxy)phenyl)benzo[d]isoxazole], for which the inhibition at 3 µM was 5.7% in experiment [1] (setting [2]) and less than 5% in experiment [1] (setting [3]). For the same compound, on hNav1.1 (SCN1A), the inhibition at 10 µM was 16.1%.

As to `Cc1cc(-c2ccc(OC(F)(F)F)cc2)cc2c(OCc3ncco3)noc12` [Example 91, 7-methyl-3-(oxazol-2-ylmethoxy)-5-(4-(trifluoromethoxy)phenyl)benzo[d]isoxazole], the inhibition at 3 µM in experiment [1] (setting [2]) was 33%; in experiment [1] (setting [3]) it was less than 5%. Further, the inhibition at 10 µM on hNav1.1 (SCN1A) came out at 31.1%.

Regarding `CC1(COc2noc3ccc(-c4ccc(OC(F)(F)F)cc4)cc23)COC1` [Example 92, 3-((3-methyloxetan-3-yl)methoxy)-5-(4-(trifluoromethoxy)phenyl)benzo[d]isoxazole], the inhibition at 3 µM in experiment [1] (setting [2]) is 9.6%; in experiment [1] (setting [3]), less than 5%. Also, the inhibition at 10 µM on hNav1.1 (SCN1A) is less than 5%.

Regarding `Cc1cccnc1COc1noc2ccc(-c3ccc(OC(F)(F)F)cc3)cc12` [Example 93, 3-((3-methylpyridin-2-yl)methoxy)-5-(4-(trifluoromethoxy)phenyl)benzo[d]isoxazole], the inhibition at 3 µM in experiment [1] (setting [2]) was 14.9%; in experiment [1] (setting [3]) it was less than 5%. Further, the inhibition at 10 µM on hNav1.1 (SCN1A) is less than 5%.

For the compound `Cc1cccc(COc2noc3ccc(-c4ccc(OC(F)(F)F)cc4)cc23)n1` [Example 95, 3-((6-methylpyridin-2-yl)methoxy)-5-(4-(trifluoromethoxy)phenyl)benzo[d]isoxazole], the inhibition at 3 µM in experiment [1] (setting [2]) is 6.4%; in experiment [1] (setting [3]), less than 5%. The inhibition at 10 µM at hNav1.1 (SCN1A) was less than 5%.

For `OCC1(COc2noc3ccc(-c4ccc(OC(F)(F)F)cc4)cc23)COC1` [Example 97, (3-(((5-(4-(trifluoromethoxy)phenyl)benzo[d]isoxazol-3-yl)oxy)methyl)oxetan-3-yl)methanol], the figures for the inhibition at 3 µM in experiment [1] (setting [2]) and in experiment [1] (setting [3]) were 26.5% and less than 5%, respectively. Further, the inhibition at 10 µM at hNav1.1 (SCN1A) turned out to be 46.3%.

`CC(Oc1noc2ccc(-c3ccc(OC(F)(F)F)cc3)cc12)c1ccccn1` (stereo not drawn) [Example 98, 3-(1-(pyridin-2-yl)ethoxy)-5-(4-(trifluoromethoxy)phenyl)benzo[d]isoxazole]: the inhibition at 3 µM in experiment [1] (setting [2]) is 28.7%; in experiment [1] (setting [3]), less than 5%. The inhibition at 10 µM at hNav1.1 (SCN1A) was 15.9%.
